Laboratory results from the NIST ThermoML archive (doi:10.1021/je060271a).
Numbers after ± are expanded uncertainties.

Settings: 303.15 K, Liquid, Vibrating tube method

Measured: mass density

CCCCCCCC(=O)OCC(COC(=O)CCCCCCC)(COC(=O)CCCCCCC)COC(=O)CCCCCCC [pentaerythritol tetraoctanoate]
966.3 ± 1.2 kg/m3: 18133 kPa | 18205 kPa | 18278 kPa
966.8 ± 1.2 kg/m3: 18886 kPa | 19045 kPa | 19168 kPa
968.6 ± 1.2 kg/m3: 22158 kPa | 22266 kPa | 22297 kPa | 22328 kPa | 22499 kPa
966.6 ± 1.2 kg/m3: 18732 kPa | 18768 kPa | 18930 kPa
966.1 ± 1.2 kg/m3: 17674 kPa | 17742 kPa | 17773 kPa | 17916 kPa | 17948 kPa
967.9 ± 1.2 kg/m3: 21244 kPa
965.8 ± 1.2 kg/m3: 17571 kPa
967.6 ± 1.2 kg/m3: 20582 kPa
967.8 ± 1.2 kg/m3: 20766 kPa | 20817 kPa
967 ± 1.2 kg/m3: 19248 kPa | 19458 kPa | 19502 kPa
966.7 ± 1.2 kg/m3: 18810 kPa | 18851 kPa | 18966 kPa | 19087 kPa
968.9 ± 1.2 kg/m3: 22703 kPa | 22762 kPa | 22795 kPa | 22823 kPa
968.1 ± 1.2 kg/m3: 21322 kPa | 21402 kPa | 21425 kPa | 21478 kPa | 21506 kPa
967.3 ± 1.2 kg/m3: 19851 kPa | 19938 kPa | 19986 kPa | 20074 kPa
968.5 ± 1.2 kg/m3: 22049 kPa | 22101 kPa | 22126 kPa | 22186 kPa | 22214 kPa
968.8 ± 1.2 kg/m3: 22473 kPa | 22531 kPa | 22588 kPa | 22614 kPa | 22647 kPa | 22677 kPa | 22736 kPa
967.5 ± 1.2 kg/m3: 20252 kPa | 20397 kPa | 20440 kPa | 20489 kPa | 20532 kPa
967.7 ± 1.2 kg/m3: 20632 kPa | 20674 kPa | 20724 kPa | 20872 kPa
966.9 ± 1.2 kg/m3: 19009 kPa | 19131 kPa | 19211 kPa | 19338 kPa | 19375 kPa | 19420 kPa
966 ± 1.2 kg/m3: 17535 kPa | 17601 kPa | 17637 kPa | 17705 kPa | 17810 kPa | 18056 kPa
968.4 ± 1.2 kg/m3: 21721 kPa | 21850 kPa | 21933 kPa | 21964 kPa | 22017 kPa | 22071 kPa
966.5 ± 1.2 kg/m3: 18351 kPa | 18391 kPa | 18499 kPa | 18540 kPa | 18573 kPa | 18614 kPa | 18656 kPa | 18690 kPa
966.4 ± 1.2 kg/m3: 18238 kPa | 18311 kPa | 18424 kPa | 18465 kPa
968 ± 1.2 kg/m3: 20948 kPa | 21030 kPa | 21112 kPa | 21144 kPa | 21170 kPa | 21194 kPa | 21222 kPa | 21272 kPa | 21299 kPa | 21350 kPa | 21374 kPa
968.7 ± 1.2 kg/m3: 22241 kPa | 22355 kPa | 22385 kPa | 22411 kPa | 22441 kPa | 22556 kPa
967.4 ± 1.2 kg/m3: 20025 kPa | 20115 kPa | 20163 kPa | 20203 kPa | 20302 kPa | 20344 kPa
967.1 ± 1.2 kg/m3: 19292 kPa | 19548 kPa | 19586 kPa | 19632 kPa | 19677 kPa | 19715 kPa
968.2 ± 1.2 kg/m3: 21454 kPa | 21533 kPa | 21557 kPa | 21585 kPa | 21610 kPa | 21636 kPa | 21666 kPa | 21690 kPa | 21743 kPa | 21775 kPa
967.2 ± 1.2 kg/m3: 19762 kPa | 19802 kPa | 19890 kPa
968.3 ± 1.2 kg/m3: 21798 kPa | 21827 kPa | 21880 kPa | 21909 kPa | 21988 kPa
966.2 ± 1.2 kg/m3: 17848 kPa | 17879 kPa | 17985 kPa | 18024 kPa | 18095 kPa | 18165 kPa
